Structures are written as SMILES. Like-named read-outs stand apart in the source and are kept apart here.

Common to all, as to assay type: physicochemical
Data set [1] can be described thus: Fish diagram phase study: surfactant concentration (C) and sebum fraction in oil (F) where Type IV microemulsion forms. The settings on record: co-oil with artificial sebum, WOR=1. Here is the method:
Methods: Phase behavior studies were performed using equal volume of water and oil (or sebum/co-oil mixtures), giving a water/oil ratio (WOR) equal to one. Preliminary studies were conducted to determine preferred formulations and salinity. […] In another non-limiting aspect, a preferred salinity (S*) for this composition was 0.5% NaCl. As noted throughout this document and contemplated by the inventors, these concentrations can be varied. Additionally, the ingredients can also vary. For example, the surfactants, hydrophobic and hydrophilic linkers, co-oils, and hydrotropes that are discussed throughout this document and known to those of ordinary skill in the art can be used with the present invention. Stock solutions of AOT, hexylglucocide, and sorbitan monooleate at the selected weight ratio were prepared at different total surfactant/linker concentrations ranging from 14.19% to 56.06% wt. The phase studies were carried out in 16×125 mm flat-bottomed tubes; 2.5 mL surfactant solution was added, followed by the addition of co-oil, then sebum oil. The total volume of co-oil and sebum oil required is equivalent to the amount of water present in the 2.5 mL surfactant solution; this is to keep WOR equal to one. The fraction of sebum oil in the oil mixtures is varied from zero (100% vol. co-oil) to one (100% vol. sebum oil). The prepared samples were gently shaken once a day for 3 days and left to equilibrate at room temperature for 2 weeks. Phase diagrams (fish diagrams) were constructed by plotting the total surfactant/linker concentration as a function of the sebum fraction in oil. The microemulsion phase (Type I, II, III, and IV) were obtained by visual observation. The effect of salinity (0.5%, 1.5%, and 3% wt. NaCl) and co-oil on the phase behavior was investigated. The fish tail is observed in the high concentration regime whereas the fish body appears in the low concentration regime. A surfactant concentration 14.19% wt was studied. As discussed throughout this document, however, the surfactant concentration can be varied. At lower surfactant concentrations, slow phase separation kinetics made it difficult to map out the three phase region. The surfactant concentration and the sebum fraction of oil at which the body and tail of the fish meet are denoted by “C” and “F”, respectively. The concentration C for this system, approximately, is 25% wt. surfactant concentration at the fraction F of 0.4, as summarized in Table 4.

Data set [2] can be described thus: Equivalent alkane carbon number (EACN) of co-oils. The source says:
(§1) Formulating microemulsions requires the combination of variables that will provide a middle phase microemulsion. Salager et al. (1979) proposed a semi empirical equation that relates the different formulation variables: Ln(S*)=k(EACN)+f(A)−σ+αTΔT Where S* is an optimum salinity, or electrolyte concentration; k is a constant, normally, between 0.1 to 0.17, and EACN is the equivalent alkane carbon number for nonlinear hydrocarbon (e.g. triglycerides). Although preferred salinity concentrations may exist, the inventors contemplate that salinity levels can and will vary. For example, a person of ordinary skill in the art will recognize that salinity levels may vary depending on the desired effects of a given product, protocol, or individual characteristics of a user of the product. For linear hydrocarbon, alkane carbon number (ACN) is applied. The EACN is estimated based on the optimum salinity obtained in the inventors' formulation studies. The higher the optimum salinity, the more the hydrophobicity or EACN of the oil. The effect of alcohol or additives is noted by f(A), σ is a function of the type of the surfactant, α is a constant, and T is the temperature of the system. However, in this study, alcohol is not included and the temperature of the system is constant.
The EACN of squalene is 24 and isopropyl myristate (IPM) is 13. The EACN for squalane is expected to be close to the value for squalene (˜24).

The nature of data set [3]: Optimum salinity (S*) of co-oil/sebum oil mixtures in phase behavior studies with the AOT/sorbitan monooleate/hexylglucocide system. The conditions noted are these: NaCl. The procedure: Methods: Phase behavior studies were performed using equal volume of water and oil (or sebum/co-oil mixtures), giving a water/oil ratio (WOR) equal to one. Preliminary studies were conducted to determine preferred formulations and salinity. […] In another non-limiting aspect, a preferred salinity (S*) for this composition was 0.5% NaCl. As noted throughout this document and contemplated by the inventors, these concentrations can be varied. Additionally, the ingredients can also vary. For example, the surfactants, hydrophobic and hydrophilic linkers, co-oils, and hydrotropes that are discussed throughout this document and known to those of ordinary skill in the art can be used with the present invention.
Stock solutions of AOT, hexylglucocide, and sorbitan monooleate at the selected weight ratio were prepared at different total surfactant/linker concentrations ranging from 14.19% to 56.06% wt. The phase studies were carried out in 16×125 mm flat-bottomed tubes; 2.5 mL surfactant solution was added, followed by the addition of co-oil, then sebum oil. The total volume of co-oil and sebum oil required is equivalent to the amount of water present in the 2.5 mL surfactant solution; this is to keep WOR equal to one. The fraction of sebum oil in the oil mixtures is varied from zero (100% vol. co-oil) to one (100% vol. sebum oil). The prepared samples were gently shaken once a day for 3 days and left to equilibrate at room temperature for 2 weeks. Phase diagrams (fish diagrams) were constructed by plotting the total surfactant/linker concentration as a function of the sebum fraction in oil. The microemulsion phase (Type I, II, III, and IV) were obtained by visual observation. The effect of salinity (0.5%, 1.5%, and 3% wt. NaCl) and co-oil on the phase behavior was investigated.
as §1

[4] abbreviates: oil mixture 20% co-oil / 80% sebum (vol.).
Setting [5] is: oil mixture 40% co-oil / 60% sebum.
[6] abbreviates: oil mixture 60% co-oil / 40% sebum.
Setting [7] is: oil mixture 80% co-oil / 20% sebum.

As for `CC(C)CCCC(C)CCCC(C)CCCCC(C)CCCC(C)CCCC(C)C` (centres unmarked) [Squalane, 2,6,10,15,19,23-Hexamethyltetracosane], the “Concentration (C) of surfactant at which Type IV microemulsion forms” value (“Concentration (C) of surfactant” below) in data set [1] ([NaCl] 0.50%) was determined as 25 % wt; in data set [1] ([NaCl] 1.50%) it was 35 % wt; in data set [1] ([NaCl] 3.00%), 42 % wt. Also, the figures for the “sebum fraction in oil (F) at which Type IV microemulsion forms” value (shortened to “sebum fraction in oil (F)”) in data set [1] ([NaCl] 0.50%), in data set [1] ([NaCl] 1.50%) and in data set [1] ([NaCl] 3.00%) were 0.35, 0.2 and 0.15, respectively.

For `CC(C)=CCC/C(C)=C/CC/C(C)=C/CC/C=C(\C)CC/C=C(\C)CCC=C(C)C` [Squalene], in data set [2], the EACN is 24. For the same compound, in data set [1] ([NaCl] 0.50%), the “Concentration (C) of surfactant” value is recorded as approximately 25 % wt and the “sebum fraction in oil (F)” value is reported as 0.45. Besides, in data set [1] ([NaCl] 0.50%, listed as squalene), the “sebum fraction in oil (F)” value is 0.4.

With `CCCCCCCCCCCCCC(=O)OC(C)C` [IPM, isopropyl myristate], in data set [2], the EACN came to 13. In addition, the “S* (optimum salinity)” value is 3.5% in data set [3] (100% co-oil / 0% sebum); “less than 0.5%” in data set [3] (setting [4]); less than 0.5% in data set [3] (oil mixture 20% co-oil / 80% sebum (vol.), listed as Isopropyl Myristate (IPM)); 0.5% in data set [3] (setting [5]); 0.8% in data set [3] (setting [6]); 1.5% in data set [3] (setting [7]). Further, the “Concentration (C) of surfactant” value in data set [1] ([NaCl] 0.50%) worked out at 25 % wt; in data set [1] ([NaCl] 1.50%), 38 % wt. The “sebum fraction in oil (F)” value in data set [1] ([NaCl] 0.50%) amounted to 0.5; in data set [1] ([NaCl] 1.50%) it was 0.175.

Consider `CCCCCCCCCCCC(=O)OCC` [EL, ethyl laurate], for which the EACN in data set [2] and in data set [2] (listed as Ethyllaurate (EL)) was less than 13 in each case. Moreover, the “S* (optimum salinity)” value was 1-1.5% in data set [3] (100% co-oil / 0% sebum); less than 0.5% in data set [3] (setting [4]); less than 0.5% in data set [3] (setting [5]); less than 0.5% in data set [3] (setting [6]); 0.5-0.7% in data set [3] (setting [7]). In addition, the entries for the “Concentration (C) of surfactant” value in data set [1] ([NaCl] 0.50%) and in data set [1] ([NaCl] 1.50%) were 25 % wt and 38 % wt, respectively. In addition, the “sebum fraction in oil (F)” value in data set [1] ([NaCl] 0.50%) is recorded as 0.4; in data set [1] ([NaCl] 1.50%), 0.02.

The values above are taken from patent US20060165739A1, “Alcohol-free microemulsion composition” (Mary Kay Inc., priority 2005, published 2006).
